The test system of series [1] is MatTek EpiDerm 3D reconstituted skin models. In words: MTT viability of the 3D skin models. It counts as cell-based, human. The conditions noted are these: MTT assay at end of experiment; dexamethasone at 50 μM. As to the method:
(§1) To assess the effect of the bacterial ferment according to the invention on the secretion levels of IL8, reconstituted 3D skin models (EpiDerm™, MatTek) were used. After a short acclimation phase (daily medium changes), the models were switched to hydrocortisone-free medium, and test compounds were added topically to the reconstituted models. 50 μM dexamethasone was used as positive control, PBS served as negative control in the experiment. After 72 h incubation at 37° C. 5% CO2, the 3D models were washed with PBS and subsequently, an inflammatory response was stimulated by addition of 1 μg/ml Ma in the medium for approx. 24 h. Supernatants were collected after this phase and the IL8 concentration in these supernatants was determined using an ELISA kit (Human […] DuoSet ELISA, R&D Systems). To assess potential toxic effects of the test compounds on the 3D models, a standard MTT assay was carried out to assess viability of the 3D models at the end of the experiment.

In the next series the test system is Interleukin-8 (IL8). As to the kind of experiment: IL8 secretion by EpiDerm 3D reconstituted skin models after IL1a stimulation (ELISA). The series is classed as cell-based, human. To be noted: supernatants; 72 h topical treatment, then 1 μg/ml IL1a approx. 24 h; triplicates; dexamethasone at 50 μM. On the procedure:
as §1
For orientation: In an ELISA, binding on a coated surface is turned into a signal by an enzyme label.

The next series has as its system Lactobacillus cultures. As to the kind of experiment: Reduction of Lactobacillus viability by treatment with lactic acid (plating of serial dilutions). The series is classed as cell-based.

With `C[C@@H]1C[C@H]2[C@@H]3CCC4=CC(=O)C=C[C@]4(C)[C@@]3(F)[C@@H](O)C[C@]2(C)[C@@]1(O)C(=O)CO` [Dexamethasone, dexamethasone], the “Viability (% vs stimulated control)” value in series [1] amounted to 90 % vs stimulated control. Also, the “IL-8 concentration [pg/ml] ± SEM” value in the series with Interleukin-8 (IL8) came out at 1225 ± 18.61 pg/mL.

On to `CC(O)C(=O)O` (stereo not shown) [Lactic Acid, lactic acid], for which the “Lactobacillus count (log cfu/ml)” value was found to be 7.54 log cfu/ml in the series with Lactobacillus cultures (2 % (w/v) lactic acid, 37° C., 12 h); 7.08 log cfu/ml with Lactobacillus cultures (2.8 % (w/v) lactic acid, 37° C., 12 h); 5.45 log cfu/ml with Lactobacillus cultures (3 % (w/v) lactic acid, 37° C., 12 h); 4.72 log cfu/ml in the series on Lactobacillus cultures (3.4 % (w/v) lactic acid, 37° C., 12 h); 5.09 log cfu/ml in the series with Lactobacillus cultures (3.6 % (w/v) lactic acid, 37° C., 12 h); 3.52 log cfu/ml in the series on Lactobacillus cultures (4 % (w/v) lactic acid, 37° C., 12 h). For the same compound, the “Lactobacillus count (log cfu/ml)” value in the series on Lactobacillus cultures (4.4 % (w/v) lactic acid, 37° C., 12 h) is 3.60 log cfu/ml; in the series on Lactobacillus cultures (4.8 % (w/v) lactic acid, 37° C., 12 h) it was 3.00 log cfu/ml; in the series on Lactobacillus cultures (5 % (w/v) lactic acid, 37° C., 12 h) it was 1.00 log cfu/ml; with Lactobacillus cultures (5.4 % (w/v) lactic acid, 37° C., 12 h), 1.38 log cfu/ml; with Lactobacillus cultures (6 % (w/v) lactic acid, 37° C., 12 h), 1.95 log cfu/ml; in the series on Lactobacillus cultures (6.8 % (w/v) lactic acid, 37° C., 12 h), 1.70 log cfu/ml. Besides, the “lactic acid concentration range of optimal reduction of Lactobacillus count” value in the series with Lactobacillus cultures (37° C., 12 h) is “ca. 5 % (w/v)”. Further, the “reduction in bacterial count by short pH shock with lactic acid” value in the series with Lactobacillus cultures (step c of the method, bacterial ferment supernatant) is “at least 9 order”.

For the origin of these results see patent US12076436B2, “Bacterial ferment of Lactobacillus species” (Symrise AG, priority 2021, dated 2024).
